Assays:
Assay type in all cases: cell-based
[1] = tested on: Geobacillus stearothermophilus (NBRC 13737); test: Germination induction, change of turbidity (630 nm) of spore suspension; settings: 300 ppm, 37° C., 150 rpm
Protocol: (§1) It is possible to determine whether spores have germinated, after measuring an OD 630 value (turbidity at 630 nm) of the liquid culture, based on decrease in the value (Literature: Microbiology, (1950), 4, 3, 330-338). Briefly, bacterial cells after culturing are washed with distilled water and diluted with distilled water to OD 630=1.0, which is then mixed with an equal volume of a germination induction solution, and the turbidity at 630 nm is measured by a UV spectrophotometer at room temperature.
(§2) TS culture media (Difco, Trypticase Soy Broth) were inoculated respectively with 11 strains listed in Table 1 and cultured at 50° C. with respect to Geobacillus stearothermophilus NBRC13737 and Aeribacillus pallidus TK6004 (FERM BP-08597), and at 37° C. with respect to the other 9 strains, until respective colonies were established. Then with respect to each of 11 strains, a loop full of a single colony was scratched by a platinum loop and suspended in 500 μL of sterilized water. In 1000 g of water was dissolved 8.0 g of a nutrient agar culture medium (Difco, Nutrient Broth), followed by high pressure steam sterilization (121° C., 15 min) to prepare a plate medium. The nutrient agar culture medium was smeared with each 100 μL of the suspension and cultured at 37° C. for 3 days.
(§3) Then, bacterial cells were suspended using a platinum loop in 500 μL of sterilized water, and the bacterial suspension was subjected to a heat shock at 65° C. for 35 min. Each 100 μL of the heat-shocked bacterial suspension and a not-heat-shocked bacterial suspension were smeared on the TS culture media respectively and cultured at 50° C. or 37° C. for 1 day. As the results of the cultures, colony formation was confirmed also with respect to the heat-shocked bacterial suspensions, to confirm that spores were formed for all of 11 strains. Further, since the bacteria were not stained by Gram staining, it was reconfirmed that spores were formed.
(§4) After confirming the spore formation, the bacterial cells were collected by a bacteria spreader, suspended in 10 mL of sterilized distilled water, and then centrifuged (8340×g, 4° C., 15 min). The supernatant was removed and thereafter the bacterial cells were washed twice with 10 mL of sterilized water. After washing, the bacterial cells were suspended in 5 mL of sterilized water, and the suspension was filtrated by sterilized Kimwipes. The filtrate was centrifuged (8340×g, 4° C., 15 min) to remove the supernatant, and the rest was adjusted to the turbidity (at 630 nm) of 1.0 with sterilized water.
(§5) After dissolving with stirring using a stirring rod with a propeller, filtration sterilization (0.45 μm filter) was conducted to prepare each 600 ppm-solution.
(§6) Five hundred (500) μL of each solution and 500 μL of each bacterial spore suspension were mixed. […] Defining the time point of mixing as the reaction initiation (0 min), and continuing shaking (150 rpm) at 37° C., the turbidity (630 nm) was measured at 10, 20, 30, 40, 50, 60, 90, 120, and 180 min after the reaction initiation.
(§7) Since the turbidity at 630 nm decreases by germination of spores, it has been known that the turbidity at 630 nm can be used to determine the germination rate.

[2] = tested on: Bacillus licheniformis (NBRC 12195); test: as above; settings: 300 ppm, 37° C., 150 rpm
Protocol: as §1, §2, §3, §4, §5, §6, §7

[3] = tested on: Bacillus amyloliquefaciens (NBRC 3022); test: as above; settings: 300 ppm, 37° C., 150 rpm
Protocol: as §1, §2, §3, §4, §5, §6, §7

[4] = tested on: Aeribacillus pallidus TK6004 (FERM BP-08597); test: as above; settings: 300 ppm, 37° C., 150 rpm
Protocol: as §1, §2, §3, §4, §5, §6, §7

[5] = tested on: Bacillus subtilis C-3102 (FERM BP-1096); test: as above; settings: 300 ppm, 37° C., 150 rpm
Protocol: as §1, §2, §3, §4, §5, §6, §7

[6] = tested on: Bacillus coagulans (NBRC 12583); test: as above; settings: 300 ppm, 37° C., 150 rpm
Protocol: as §1, §2, §3, §4, §5, §6, §7

[7] = tested on: Bacillus coagulans (NBRC 3887); test: as above; settings: 300 ppm, 37° C., 150 rpm
Protocol: as §1, §2, §3, §4, §5, §6, §7

[8] = tested on: Bacillus subtilis sp spizizenii (NBRC 101239); test: as above; settings: 300 ppm, 37° C., 150 rpm
Protocol: as §1, §2, §3, §4, §5, §6, §7

[9] = tested on: Bacillus amyloliquefaciens (NBRC 3032); test: as above; settings: 300 ppm, 37° C., 150 rpm
Protocol: as §1, §2, §3, §4, §5, §6, §7

[10] = tested on: Bacillus licheniformis (NBRC 14206); test: as above; settings: 300 ppm, 37° C., 150 rpm
Protocol: as §1, §2
Then, bacterial cells were suspended using a platinum loop in 500 μL of sterilized water, and the bacterial suspension was subjected to a heat shock at 65° C. for 35 min. Each 100 μL of the heat-shocked bacterial suspension and a not-heat-shocked bacterial suspension were smeared on the TS culture media respectively and cultured at 50° C. or 37° C. for 1 day.
as §4, §5, §6, §7

[11] = tested on: Bacillus subtilis C-3102 (FERM BP-1096); test: Germination induction by ferulic acid, vanillic acid or p-coumaric acid at 300 ppm, turbidity change (Example 3); settings: for turbidity (630 nm): 37° C., 150 rpm
Protocol: In each 500 mL of distilled water heated to 70° C. was added 0.3 g of ferulic acid, vanillic acid, or p-coumaric acid. After dissolving with stirring using a stirring rod with a propeller, filtration sterilization (0.45 μm filter) was conducted to prepare each 600 ppm-solution.
Next, 500 μL aliquots of bacterial suspension of Bacillus subtilis C-3102 (FERM BP-1096) prepared by a similar method as in Example 1 were mixed with 500 μL of each of the ferulic acid, vanillic acid, and p-coumaric acid solutions, and the mixtures were adjusted to 300 ppm of ferulic acid, vanillic acid, or p-coumaric acid concentration. Defining the time point of mixing as the reaction initiation (0 min), and continuing shaking (150 rpm) at 37° C., the turbidity (630 nm) was measured at 10, 20, 30, 40, 50, 60, 90, 120, and 180 min after the reaction initiation.

[12] = 0 min after reaction initiation
[13] = 10 min after reaction initiation
[14] = 20 min after reaction initiation
[15] = 30 min after reaction initiation
[16] = 40 min after reaction initiation
[17] = 50 min after reaction initiation
[18] = 60 min after reaction initiation
[19] = 90 min after reaction initiation
[20] = 120 min after reaction initiation
[21] = 180 min after reaction initiation

For `C[C@H](N)C(=O)O` [L-Ala, L-alanine, reference compound], the “turbidity (630 nm)” value [1, 12] was 0.577, the “turbidity (630 nm)” value [1, 13] was 0.573 and the “turbidity (630 nm)” value [1, 14] was 0.566. For the same compound, the “turbidity (630 nm)” value [1, 15] was 0.565, the “turbidity (630 nm)” value [1, 16] was 0.568 and the “turbidity (630 nm)” value [1, 17] was 0.561. For the same compound, the “turbidity (630 nm)” value [1, 18] was 0.568, the “turbidity (630 nm)” value [1, 19] was 0.565 and the “turbidity (630 nm)” value [1, 20] was 0.553. For the same compound, the “turbidity (630 nm)” value [1, 21] was 0.538, the “turbidity (630 nm)” value [2, 12] was 0.534 and the “turbidity (630 nm)” value [2, 13] was 0.526. For the same compound, the “turbidity (630 nm)” value [2, 14] was 0.517, the “turbidity (630 nm)” value [2, 15] was 0.510 and the “turbidity (630 nm)” value [2, 16] was 0.508. The “turbidity (630 nm)” value [2, 17] was 0.503, the “turbidity (630 nm)” value [2, 18] was 0.503 and the “turbidity (630 nm)” value [2, 19] was 0.493. For the same compound, the “turbidity (630 nm)” value [2, 20] was 0.492, the “turbidity (630 nm)” value [2, 21] was 0.498 and the “turbidity (630 nm)” value [3, 12] was 0.565. The “turbidity (630 nm)” value [3, 13] was 0.505, the “turbidity (630 nm)” value [3, 14] was 0.506 and the “turbidity (630 nm)” value [3, 15] was 0.461. For the same compound, the “turbidity (630 nm)” value [3, 16] was 0.495, the “turbidity (630 nm)” value [3, 17] was 0.504 and the “turbidity (630 nm)” value [3, 18] was 0.506. For the same compound, the “turbidity (630 nm)” value [3, 19] was 0.490, the “turbidity (630 nm)” value [3, 20] was 0.505 and the “turbidity (630 nm)” value [3, 21] was 0.493. For the same compound, the “turbidity (630 nm)” value [4, 12] was 0.488, the “turbidity (630 nm)” value [4, 13] was 0.470 and the “turbidity (630 nm)” value [4, 14] was 0.463. The “turbidity (630 nm)” value [4, 15] was 0.457, the “turbidity (630 nm)” value [4, 16] was 0.451 and the “turbidity (630 nm)” value [4, 17] was 0.445. For the same compound, the “turbidity (630 nm)” value [4, 18] was 0.441, the “turbidity (630 nm)” value [4, 19] was 0.416 and the “turbidity (630 nm)” value [4, 20] was 0.404. The “turbidity (630 nm)” value [4, 21] was 0.370, the “turbidity (630 nm)” value [5, 12] was 0.606 and the “turbidity (630 nm)” value [5, 13] was 0.607. The “turbidity (630 nm)” value [5, 14] was 0.597, the “turbidity (630 nm)” value [5, 15] was 0.597 and the “turbidity (630 nm)” value [5, 16] was 0.594. The “turbidity (630 nm)” value [5, 17] was 0.590, the “turbidity (630 nm)” value [5, 18] was 0.582 and the “turbidity (630 nm)” value [5, 19] was 0.584. The “turbidity (630 nm)” value [5, 20] was 0.574, the “turbidity (630 nm)” value [5, 21] was 0.578 and the “turbidity (630 nm)” value [6, 12] was 0.564. For the same compound, the “turbidity (630 nm)” value [6, 13] was 0.559, the “turbidity (630 nm)” value [6, 14] was 0.545 and the “turbidity (630 nm)” value [6, 15] was 0.515. For the same compound, the “turbidity (630 nm)” value [6, 16] was 0.502, the “turbidity (630 nm)” value [6, 17] was 0.498 and the “turbidity (630 nm)” value [6, 18] was 0.510. The “turbidity (630 nm)” value [6, 19] was 0.510, the “turbidity (630 nm)” value [6, 20] was 0.507 and the “turbidity (630 nm)” value [6, 21] was 0.491. For the same compound, the “turbidity (630 nm)” value [7, 12] was 0.510, the “turbidity (630 nm)” value [7, 13] was 0.508 and the “turbidity (630 nm)” value [7, 14] was 0.470. The “turbidity (630 nm)” value [7, 15] was 0.515, the “turbidity (630 nm)” value [7, 16] was 0.488 and the “turbidity (630 nm)” value [7, 17] was 0.500. For the same compound, the “turbidity (630 nm)” value [7, 18] was 0.500, the “turbidity (630 nm)” value [7, 19] was 0.472 and the “turbidity (630 nm)” value [7, 20] was 0.500. For the same compound, the “turbidity (630 nm)” value [7, 21] was 0.490, the “turbidity (630 nm)” value [8, 12] was 0.527 and the “turbidity (630 nm)” value [8, 13] was 0.520. The “turbidity (630 nm)” value [8, 14] was 0.514, the “turbidity (630 nm)” value [8, 15] was 0.501 and the “turbidity (630 nm)” value [8, 16] was 0.488. For the same compound, the “turbidity (630 nm)” value [8, 17] was 0.475, the “turbidity (630 nm)” value [8, 18] was 0.455 and the “turbidity (630 nm)” value [8, 19] was 0.409. The “turbidity (630 nm)” value [8, 20] was 0.387, the “turbidity (630 nm)” value [8, 21] was 0.366 and the “turbidity (630 nm)” value [9, 12] was 0.517. For the same compound, the “turbidity (630 nm)” value [9, 13] was 0.418, the “turbidity (630 nm)” value [9, 14] was 0.362 and the “turbidity (630 nm)” value [9, 15] was 0.347. For the same compound, the “turbidity (630 nm)” value [9, 16] was 0.333, the “turbidity (630 nm)” value [9, 17] was 0.315 and the “turbidity (630 nm)” value [9, 18] was 0.32. For the same compound, the “turbidity (630 nm)” value [9, 19] was 0.298, the “turbidity (630 nm)” value [9, 20] was 0.290 and the “turbidity (630 nm)” value [9, 21] was 0.274. The “turbidity (630 nm)” value [10, 14] was 0.535, the “turbidity (630 nm)” value [10, 15] was 0.502 and the “turbidity (630 nm)” value [10, 16] was 0.490. The “turbidity (630 nm)” value [10, 17] was 0.482, the “turbidity (630 nm)” value [10, 18] was 0.477 and the “turbidity (630 nm)” value [10, 19] was 0.470. For the same compound, the “turbidity (630 nm)” value [10, 20] was 0.465 and the “turbidity (630 nm)” value [10, 21] was 0.468.

In the case of `O=C(O)/C=C/c1ccc(O)cc1` [p-Coumaric acid, p-coumaric acid], the “germination confirmed by turbidity decrease” value [11] was “decreased, thereby to confirm germination”, the “turbidity (630 nm)” value [11, 12] was 0.545 and the “turbidity (630 nm)” value [11, 13] was 0.523. The “turbidity (630 nm)” value [11, 14] was 0.506, the “turbidity (630 nm)” value [11, 15] was 0.488 and the “turbidity (630 nm)” value [11, 16] was 0.475. For the same compound, the “turbidity (630 nm)” value [11, 17] was 0.460, the “turbidity (630 nm)” value [11, 18] was 0.420 and the “turbidity (630 nm)” value [11, 19] was 0.392. For the same compound, the “turbidity (630 nm)” value [11, 20] was 0.360 and the “turbidity (630 nm)” value [11, 21] was 0.319.

Reference: US20140308733A1, “METHOD FOR INDUCING GERMINATION OF SPORE FORMING BACTERIUM” (CALPIS CO., LTD., priority 2011, published 2014)
